Assay results: patent US11753445B2, “Therapeutic peptides” (COHBAR, INC., priority 2016, dated 2023)

Legend:
3T3-L1 Adipocytes [1] = assay: Free fatty acid levels in cultured mouse 3T3-L1 adipocytes, isoproterenol stimulated (Example 2); format: cell-based; conditions: test peptides 25 μM; isoproterenol 1 nM
Procedure, shortened: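 3T3-L1 cells differentiated 12–17 days into adipocytes, then exposed to test peptides at 25 μM final for 18–20 h, then 1 h, then 3 h with isoproterenol (1 nM) at 37 °C. Free fatty acids in the medium measured colorimetrically at 540 nm, corrected for untreated background and expressed relative to isoproterenol-only cells.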

3T3-L1 Adipocytes [2] = assay: Free fatty acid levels in cultured mouse 3T3-L1 adipocytes, forskolin stimulated (Example 3); format: cell-based; conditions: test peptides 25 μM; forskolin 1 μM
Method: Mouse 3T3-L1 cells were seeded at 1,000-20,000 cells per well on 96-well, 48-well, or 24-well plates in Pre-adipocyte Medium (Zen-Bio, Durham, N.C.) and grown to confluence at 37° C. in a humidified atmosphere of 5% CO2/95% air. Two days after confluence, cells were placed in Adipocyte Differentiation Medium (Zen-Bio, Durham, N.C.) and cultured for three additional days at 37° C. in a humidified atmosphere of 5% CO2/95% air. The culture media was then replaced with Adipocyte Maintenance Medium (Zen-Bio) and the cells were maintained for an additional 9-14 days at 37° C. in a humidified atmosphere of 5% CO2/95% air with partial medium replacement every other day. Following 12-17 days of differentiation, test peptides were added at a final concentration of 25 μM and incubated for 18-20 hours in Adipocyte Maintenance Medium at 37° C. in a humidified atmosphere of 5% CO2/95%. After 18-20 hours, the media was exchanged with fresh Adipocyte Maintenance Medium containing test peptides and incubated for 1 h at 37° C. in a humidified atmosphere of 5% CO2/95%. After 1 h media was exchanged with Assay Buffer (Zen-Bio) containing forskolin (1 μM) (added to all samples except untreated controls) and test peptides. Cells were incubated for a further 3 hours at 37° C. in a humidified atmosphere of 5% CO2/95%. Free fatty acid concentrations in the media were determined using a Free Fatty Acid Assay Kit (Zen-Bio) according to the manufacturer's instructions using a plate reader (540 nm). Absorbance values were corrected for untreated background and expressed relative to forskolin treated cells. Treatment with forskolin (1 μM) alone was used as the free fatty acid level stimulatory control. The relative standard deviation of the forskolin control was <10%. […] Free fatty acid levels for insulin (100 nM) treatment were <9% of the forskolin control value.

Human Primary Adipocytes = assay: Free fatty acid levels in cultured human primary adipocytes, forskolin stimulated (Example 5); format: cell-based; conditions: test peptides 25 μM; forskolin 1 μM
Method: Human primary adipocytes were seeded at 5,000-100,000 cells per well on 96-well, 48-well, or 24-well plate in Pre-adipocyte Medium (Zen-Bio, Durham, N.C.) and grown to confluence at 37° C. in a humidified atmosphere of 5% CO2/95% air. Two days after confluence, cells were placed in Adipocyte Differentiation Medium (Zen-Bio, Durham, N.C.) and cultured for three additional days at 37° C. in a humidified atmosphere of 5% CO2/95% air. The culture media was then replaced with Adipocyte Maintenance Medium (Zen-Bio) and the cells were maintained for an additional 11-21 days at 37° C. in a humidified atmosphere of 5% CO2/95% air with partial medium replacement every other day. Following 14-24 days of differentiation, test peptides were added at a final concentration of 25 μM and incubated for 18-20 hours in Adipocyte Maintenance Medium at 37° C. in a humidified atmosphere of 5% CO2/95%. After 18-20 hours, the media was exchanged with fresh Adipocyte Maintenance Medium containing test peptides and incubated for 1 h at 37° C. in a humidified atmosphere of 5% CO2/95%. After 1 h media was exchanged with Assay Buffer (Zen-Bio) containing forskolin (1 μM) (added to all samples except untreated controls) and test peptides. Cells were incubated for a further 3 hours at 37° C. in a humidified atmosphere of 5% CO2/95%. Free fatty acid concentrations in the media were determined using a Free Fatty Acid Assay Kit (Zen-Bio) according to the manufacturer's instructions using a plate reader (540 nm). Absorbance values were corrected for untreated background and expressed relative to forskolin treated cells. Treatment with forskolin (1 μM) alone was used as the free fatty acid level stimulatory control. The relative standard deviation of the forskolin control was <20%. […] Free fatty acid levels for insulin (100 nM) treatment were <8% of the forskolin control value.

[3] = test system: Diet Induced Obese (DIO) mice; assay: Body weight, blood glucose and fat mass in Diet Induced Obese mice, 10 days (Example 6); format: in vivo, Male C57BL/6 mice; conditions: male DIO mice; 10 days twice daily intraperitoneal 15 mg/kg; N = 8; mean
Method: Animals were randomized to treatment groups based on blood glucose levels and body weight. The peptides of the invention were administered to two groups of male DIG mice once or twice daily by subcutaneous or intraperitoneal injection at a dose of 15 mg/kg/dose for 10 days (N=8 animals per treatment group). An additional group of male DIG mice (n=8) received vehicle (water or saline) alone. Body weight, blood glucose levels and food intake were monitored. Body mass distribution (fat vs lean) was determined by quantitative whole body NMR prior to dosing and at the end of dosing.

[4] = Stability in mouse plasma, peptides 100 uM (Example 14); format: in vitro ADME; conditions: mouse plasma 37° C., peptide 100 uM; for remaining at 0.25 h, 100 uM / remaining at 0.5 h, 100 uM / remaining at 1 h, 100 uM / remaining at 2 h, 100 uM / remaining at 3 h, 100 uM: pooled mouse plasma; for remaining at 0.25 h, 100 uM: 15 min, read-out: % Remaining at Each Time Point: 15 min; for remaining at 0.5 h, 100 uM: 30 min, read-out: % Remaining at Each Time Point: 30 min; for remaining at 1 h, 100 uM: 60 min, read-out: % Remaining at Each Time Point: 60 min; for remaining at 2 h, 100 uM: 120 min, read-out: % Remaining at Each Time Point: 120 min; for remaining at 3 h, 100 uM: 180 min, read-out: % Remaining at Each Time Point: 180 min
Method: Peptides (100 uM) were incubated in pooled mouse plasma at 37° C. and samples were removed and immediately analyzed for the concentration of intact peptide by LC/MS/MS over the course of 3 hours. The percent of peptide remaining in plasma at each time point was calculated relative to the initial peak area (Table 12).

% Remaining at Each Time Point: 0 min [4]	remaining at 0.25 h, 100 uM [4]	remaining at 0.5 h, 100 uM [4]	remaining at 1 h, 100 uM [4]	remaining at 2 h, 100 uM [4]	remaining at 3 h, 100 uM [4]	Substance	Free Fatty Acid Levels in 3T3-L1 Adipocytes Expressed as a Percent of Isoproterenol Control: Percent of Control Value (3T3-L1 Adipocytes [1])	Free Fatty Acid Levels in 3T3-L1 Adipocytes Expressed as a Percent of Forskolin Control: Percent of Control Value (3T3-L1 Adipocytes [2])	Free Fatty Acid Levels in Human Primary Adipocytes Expressed as a Percent of Forskolin Control: Percent of Control Value (Human Primary Adipocytes)	Difference from Vehicle Control: Decrease from Baseline in Blood Glucose [3]	Difference from Vehicle Control: Decrease from Baseline in Body Weight (%) [3]	Difference from Vehicle Control: Decrease from Baseline in Fat Mass [3]
100%	71.2%	37.1%	42.1%	15.4%	6.98%	H-RWQEMGYIFYPRALR-OH [compound 215]	27.2%	37.4%	102%	16.4 mg/dL	2.31%	0.67 g
						H-MRWQEMNYIFYPRALR-OH [compound 218]	41.0%	43.6%	75.4%			
						H-RWQEMGYIFYPR-OH [compound 205]	71.5%	64.5%	94.5%			
						H-RWQEMGYIFYPRQ-OH [compound 207]	44.6%	51.6%	108%			
						H-RWQEMGYIFYPRN-OH [compound 206]	53.8%	50.6%	100%			
						H-MRWQEMGYIFYPRN-OH [compound 203]	52.9%	54.5%	75.2%			
100%	71%	33.2%	53.6%	22.8%	14.1%	H-RWQEMGYIFYPRQLR-OH [compound 217]	27.3%	40.3%	108%	-9.75 mg/dL	−2.54%	-0.89 g
						H-RWQEMGYIFYPRNLR-OH [compound 216]	36.3%	50.1%	110%			
						H-MRWQEMGYIFYPRQLR-OH [compound 214]	52.3%	50.2%	89.9%			
						H-MRWQEMGYIFYPRQ-OH [compound 204]	38.8%	57.3%	94.3%			
